Assay results published in patent US7435551B2, “Method for diagnosing type II diabetes or monitoring therapeutic effects of therapeutic agents for type II diabetes” (Fujirebio, Inc., priority 2001, dated 2008).

Assays:
Format in all cases: in vivo, human
[1] = Three-month pioglitazone administration to type II diabetes patients: body mass index and blood pressure; details: type II diabetes patients n=10, 30 mg/day orally, mean ± S.D.
Source text: (§1) 10 male patients with type II diabetes (ages: 40 to 66, 57.7±7.4) either being only under diet therapy (n=7) or being under diet therapy and on medication of sulfonylurea (n=3) were subjected to inspection regarding the following parameters before and after a three-month administration of a thiazolidine derivative, pioglitazone. Body weights, blood glucose levels, and blood pressure levels of those patients and treatments for them were at constant levels for at least 3 months before the examination. The sulfonylurea doses for 3 patients were at constant levels during that period. Pioglitazone was administered to all 10 patients after breakfast every day (orally, 30 mg/day).
(§2) The systolic blood pressure (SBP) and the diastolic blood pressure (DBP) were measured twice in a sitting position after an at least 5-minute recess. Body heights, weights, and levels of fasting plasma glucose (FPG), HbA1C, serum insulin, adiponectin, total cholesterol (TC), triglyceride (TG), HDL-cholesterol, LDL-cholesterol, and uric acid were measured in the morning after an overnight fast. Levels of plasma glucose, lipids, and uric acid were measured by a common automated measuring technique. The serum concentration of insulin was measured using a commercially available kit, EIA (Tosoh, Tokyo), as already described (Kawai, T. et al., Metabolism 48: 1102-1107, 1999; Hirose, H. et al., Clin. Sci. (Colch) 94: 633-636, 1998; Hirose, H. et al., J. Hypertens. 16: 2007-2012, 1998; Hirose, H. et al., Clin. Sci. (Colch) 100: 145-150, 2001). The insulin resistance index was evaluated by the Homeostasis model assessment (HOMA-IR) (Matthews, D. R. et al., Diabetologia 28: 412-419, 1985; Rudenski, A. S. et al., Metabolism 40: 908-917, 1991).

[2] = Three-month pioglitazone administration to type II diabetes patients: fasting glucose, HbA1c, lipids, uric acid
Source text: as §1, §2

[3] = Three-month pioglitazone administration to type II diabetes patients: serum insulin (EIA) and HOMA-IR
Source text: as §1, §2

[4] = Assessment of body fat distribution by CT scan before and after three-month pioglitazone; details: type II diabetes patients n=10, 30 mg/day orally, mean ± S.D.
Procedure: The patients who had been also employed in Example 1 were subjected to the assessment of body fat distribution before and after the three-month administration of pioglitazone. Distributions of subcutaneous fat and visceral fat were determined by assessing the region of a Hounsfield unit of −150 to −50 by a method modified from the computerized tomography (CT) scan at the level of the navel by Tokunaga et al. (Tokunaga, K. et al., Int. J. Obes. 7: 437-445, 1983). CT images at the baseline and after a three-month treatment were taken in accordance with the same protocols that had been previously reported by the present inventors (Kawai, T. et al., Metabolism, 48: 1102-1107, 1999). The V/S ratio was calculated by dividing the visceral fat area (VFA) by the subcutaneous fat area (SFA).

[5] = test system: adiponectin (GBP28); assay: Serum GBP28 (adiponectin) by ELISA before and after three-month pioglitazone
Procedure: The patients who had been employed in Example 1 were also subjected to an assay of the blood concentration of GBP28 before and after the three-month administration of pioglitazone.
The anti-human GBP28 monoclonal antibody was prepared in the following manner. First, a solution of GBP28 (about 50 μg) isolated and purified from human serum was micellized with a complete adjuvant, and the resultant was administered to a mouse intraperitoneally. Two weeks later, the mouse was subjected to booster, the spleen was extirpated 3 days thereafter, and the B-cell was collected. The B-cell and the myeloma cell were allowed to fuse with each other to prepare hybridomas, and a hybridoma of interest was administered to a mouse intraperitoneally. Thereafter (20 days later), ascites was processed with DEAE-Sepharose Fast Flow, and the monoclonal antibody of interest was obtained.
GBP28 was assayed by ELISA in the following manner. A standard GBP28 sample, a 441-fold-diluted unknown sample, and a control sample (100 μl each) were added to a 96-well microtiter plate coated with the mouse anti-GBP28 monoclonal antibody. The plate was incubated for 60 minutes, the well was washed, and incubation was carried out for additional 30 minutes with the horseradish peroxidase-labeled mouse anti-GBP28 monoclonal antibody. The plate was washed again, and incubation was carried out for 30 minutes with a tetramethylbenzidine reagent. Subsequently, 100 μl of aqueous solution of 0.36N sulfuric acid was added to each well to terminate the reaction, and the absorbance at 450 nm was assayed. Intra- and interassay coefficients were 4.8% to 4.9% and 3.3% to 6.8%, respectively.

[6] = type II diabetes patients n=10, 30 mg/day orally, 3 months, mean ± S.D.
[7] = type II diabetes patients n=10, 30 mg/day orally, logarithmic values, mean ± S.D.
[8] = type II diabetes patients n=10, 30 mg/day orally, mean ± S.D.
[9] = type II diabetes patients, three-month administration, given without sign

## CCc1ccc(CCOc2ccc(CC3SC(=O)NC3=O)cc2)nc1 (stereo not drawn) [pioglitazone]
[1]; 3 months
  Body Mass Index, after the three-month trace: 27.0 ± 3.5 kg/m^2
[1]
  Body Mass Index, rate of change in 3 months: 2.1 ± 2.2
  Body mass index at diastolic blood pressure, rate of change in 3 months: −6.3 ± 6.9
  Body mass index at systolic blood pressure, rate of change in 3 months: −7.0 ± 4.9
[2]; [6]
  Fasting blood glucose, after the three-month trace: 7.0 ± 1.0^ mmol/l
  HDL cholesterol, after the three-month trace: 52.1 ± 7.3 mg/dL
  HbA1c, after the three-month trace: 6.1 ± 0.6^ %
  LDL cholesterol, after the three-month trace: 138 ± 24 mg/dL
  Total cholesterol, after the three-month trace: 218 ± 35 mg/dL
  Triglyceride (log), after the three-month trace: 127 ± 2 mg/dl
  Uric acid, after the three-month trace: 5.6 ± 1.3^ mg/dl
[2]; [7]
  Triglyceride (log), rate of change in 3 months: −1.0 ± 6.3
[2]; [8]
  Fasting blood glucose, rate of change in 3 months: −18.2 ± 9.3
  HDL cholesterol, rate of change in 3 months: 2.0 ± 11.2
  HbA1c, rate of change in 3 months: −9.0 ± 8.8
  LDL cholesterol, rate of change in 3 months: 12.3 ± 12.8
  Total cholesterol, rate of change in 3 months: 4.8 ± 10.9
  Uric acid, rate of change in 3 months: −5.0 ± 9.5
[2]; [9]
  Rate of change of HbA1C over three months: 9.0%
  Rate of change of blood glucose over three months: 18.2%
[3]; [6]
  HOMA-IR (log), after the three-month trace: 1.6 ± 1.3^
  Serum insulin (log), after the three-month trace: 30 ± 8 pmmol/l
[3]; [7]
  HOMA-IR (log), rate of change in 3 months: −62.6 ± 22.6
  Serum insulin (log), rate of change in 3 months: −23.7 ± 13.5
[3]; [9]
  Rate of change of HOMA-IR over three months: 62.6%
  Rate of change of serum insulin over three months: 23.7%
[4]; 3 months, CT at navel level
  Subcutaneous Fat Area, after the three-month trace: 179 ± 81 cm^2
  Visceral Fat Area, after the three-month trace: 180 ± 46 cm^2
[4]; 3 months, VFA divided by SFA
  V/S ratio, after the three-month trace: 1.1 ± 0.3
[4]
  Subcutaneous Fat Area, rate of changes in 3 months: 16.1 ± 18.7
  V/S ratio, rate of changes in 3 months: −4.0 ± 11.2
  Visceral Fat Area, rate of changes in 3 months: 11.3 ± 21.3
[5]; 10 type II diabetes patients, three-month administration
  Elevation in serum adiponectin level, times higher than the baselines on average: 3 times
[5]; type II diabetes patients n=10, 30 mg/day orally, 3 months, serum, mean ± S.D.
  GBP28 (log), after the three-month trace: 14.4 ± 2.1 μg/l
[5]; [7]
  GBP28 (log), rate of change in 3 months: 80.9 ± 58^
[5]; type II diabetes patients, three-month administration
  Rate of change of concentration of GBP28 over three months: 80.9%
